Holding throughout (type): physicochemical
Data set [1] can be described thus: photochromic response of test squares on an optical bench (sensitivity, saturation optical density, bleach rate). Particulars: for ΔOD @ Saturation (Band A) / ΔOD @ Saturation (Band B): UV exposure 15 minutes; for ΔOD @ Saturation (Band A) / Sensitivity ΔOD/MIN (Band A) / ΔOD @ Saturation (Band B) / Sensitivity ΔOD/MIN (Band B): 72° F. (22.2° C.), polymer test square; for Sensitivity ΔOD/MIN (Band A) / Sensitivity ΔOD/MIN (Band B): first five (5) seconds of UV exposure, expressed per minute; for Bleach Rate T 1/2: measured at band B, room temperature (72° F., 22.2° C.) after removal of activating light. The protocol:
(§1) Testing was done with the photochromic compounds described in Examples 1 through 20 and Comparative Examples 1 through 3 in the following manner. A quantity of photochromic compound calculated to yield a 1.5×10^-3 molal solution was added to a flask containing 50 grams of a monomer blend of 4 parts ethoxylated bisphenol A dimethacrylate (BPA 2EO DMA), 1 part poly(ethylene glycol) 600 dimethacrylate, and 0.033 weight percent 2,2'-azobis(2-methyl propionitrile) (AIBN). The photochromic compound was dissolved into the monomer blend by stirring and gentle heating, if necessary. After a clear solution was obtained, it was poured into a flat sheet mold having the interior dimensions of 2.2 mm×6 inches (15.24 cm)×6 inches (15.24 cm). The mold was sealed and placed in a horizontal air flow, programmable oven programmed to increase the temperature from 40° C. to 95° C. over a 5 hour interval, hold the temperature at 95° C. for 3 hours, lower it to 60° C. over a 2 hour interval and then hold it at 60° C. for 16 hours. After the mold was opened, the polymer sheet was cut using a diamond blade saw into 2 inch (5.1 centimeters) test squares.
(§2) The photochromic test squares of Part A were tested for photochromic response rates on an optical bench. Prior to testing on the optical bench, the photochromic test squares were exposed to 365 nanometer ultraviolet light for about 15 minutes to activate the photochromic compounds and then placed into a 76° C. oven for about 15 minutes to bleach the photochromic compounds. The test squares were then cooled to room temperature, exposed to fluorescent room lighting for at least 2 hours and then kept covered for at least 2 hours prior to testing on an optical bench maintained at 72° F. (22.2° C.). The bench was fitted with a 250 watt Xenon arc lamp, a remote controlled shutter, a copper sulfate bath acting as a heat sink for the arc lamp, a Schott WG-320 nm cut-off filter which removes short wavelength radiation; neutral density filter(s) and a sample holder in which the square to be tested was inserted. The power output of the optical bench, i.e., the dosage of light that the sample lens would be exposed to, was calibrated with a photochromic test square used as a reference standard. […] The UV-A detector was placed into the sample holder and the light output was measured. Adjustments to the power output were made by increasing or decreasing the lamp wattage or by adding or removing neutral density filters in the light path.
A monitoring, collimated beam of light from a tungsten lamp was passed through the square at a small angle (approximately 30°) normal to the square. After passing through the square, the light from the tungsten lamp was directed to a detector through Spectral Energy Corp. GM-200 monochromator set at the previously determined visible lambda max of the photochromic compound being measured. The output signals from the detector were processed by a radiometer.
Change in optical density (ΔOD) was determined by inserting a test square in the bleached state into the sample holder, adjusting the transmittance scale to 100%, opening the shutter from the Xenon lamp to provide ultraviolet radiation to change the test square from the bleached state to an activated (i.e., darkened) state, measuring the transmittance in the activated state, and calculating the change in optical density according to the formula: ΔOD=log(100/% Ta), where % Ta is the percent transmittance in the activated state and the logarithm is to the base 10.
The ΔOD/Min, which represents the sensitivity of the photochromic compound's response to UV light, was measured over the first five (5) seconds of UV exposure, then expressed on a per minute basis. The saturation optical density (ΔOD@ Saturation) was taken under identical conditions as the ΔOD/Min, except UV exposure was continued for 15 minutes. […]

A short description of data set [2]: Relative ΔOD at Saturation Test. Conditions: ΔOD at saturation (Band A)/ΔOD at saturation (Band B)×100.
Excerpt: In accordance with the present invention, it has now been discovered that certain novel indeno[2,1-f]naphtho[1,2-b]pyrans having two absorption bands in the activated (colored) state, an acceptable fade rate, high activated intensity, a high coloration rate and a rating of 80 or higher in the Relative ΔOD at Saturation Test may be prepared. The Relative ΔOD at Saturation Test is described in Example 21. The ratings of the test are defined herein as the result obtained when the optical density of band "A" is divided by the optical density of band "B" and multiplied by 100. It is believed that compounds having a rating of 80 or higher are most valuable for formulating neutral grays, greens and browns for commercial photochromic ophthalmic eyeware.
as §1, §2
Change in optical density (ΔOD) was determined by inserting a test square in the bleached state into the sample holder, adjusting the transmittance scale to 100%, opening the shutter from the Xenon lamp to provide ultraviolet radiation to change the test square from the bleached state to an activated (i.e., darkened) state, measuring the transmittance in the activated state, and calculating the change in optical density according to the formula: ΔOD=log(100/% Ta), where % Ta is the percent transmittance in the activated state and the logarithm is to the base 10. […]

Data set [3] in a line: lambda max (Vis) of activated photochromic test squares in a Varian Cary 3 uv-visible spectrophotometer. Conditions: activated form in test square. The protocol:
as §1
The lambda max (Vis) is the wavelength in the visible spectrum at which the maximum absorption of the activated (colored) form of the photochromic compound in a test square occurs. The lambda max (Vis) wavelengths reported in Table 1 were determined by testing the photochromic test square polymerizates of Part A in a Varian Cary 3 uv-visible spectrophotometer. The bleach rate (T 1/2) is the time interval in seconds for the absorbance of the activated form of the photochromic compound in the test squares to read one half the highest absorbance at room temperature (72° F., 22.2° C.) after removal of the source of activating light.
For each lambda max visible, the corresponding optical density (Δ OD/Min and Δ OD at saturation) for the desired compounds of the Examples and Comparative Examples are tabulated in Table 1 for the two bands (A and B) of peak absorption for each compound. Table 1 also includes the bleach rate (T 1/2) for each of the compounds as measured at band B. The ratings of the Relative Δ OD at Saturation Test for the bands A and B of each of the Examples and Comparative Examples are calculated as follows: Δ OD at saturation (Band A)/Δ OD at saturation (Band B)×100.

Turning to `CCC1(O)c2ccccc2-c2c1c1c(c3cc(OC)c(OC)cc23)OC(c2ccccc2)(c2ccc(N3CCOCC3)cc2)C=C1` (centres unmarked) [Example 14, 3-(4-morpholinophenyl)-3-phenyl-6,7-dimethoxy-13-hydroxy-13-ethyl-3H,13H-indeno[2,1,-f]naphtho[1,2-b]pyran], in data set [1], the “ΔOD @ Saturation (Band A)” value is 0.41, the “Sensitivity ΔOD/MIN (Band A)” value is listed as 0.24 ΔOD/MIN, the “ΔOD @ Saturation (Band B)” value amounted to 0.40 and the “Sensitivity ΔOD/MIN (Band B)” value is 0.22 ΔOD/MIN. In addition, the “Bleach Rate T 1/2” value in data set [1] amounted to 1.8 min. For the same molecule, the “Relative ΔOD at Saturation (rating)” value in data set [2] is recorded as 103. Further, in data set [3], the “λ MAX Vis (Band A)” value was 485 nm and the “λ MAX Vis (Band B)” value was determined as 600 nm.

With `CCCCC1(O)c2ccccc2-c2c1c1c(c3cc(OC)c(OC)cc23)OC(c2ccc(OC)cc2)(c2ccc(OC)cc2)C=C1` (centres unmarked) [Example 15, 3,3-di(4-methoxyphenyl)-6,7-dimethoxy-13-hydroxy-13-butyl-3H,13H-indeno[2,1,-f]naphtho[1,2-b]pyran], in data set [1], the “ΔOD @ Saturation (Band A)” value is recorded as 0.37, the “Sensitivity ΔOD/MIN (Band A)” value is reported as 0.29 ΔOD/MIN, the “ΔOD @ Saturation (Band B)” value is recorded as 0.22 and the “Sensitivity ΔOD/MIN (Band B)” value is reported as 0.18 ΔOD/MIN. In addition, the “Bleach Rate T 1/2” value in data set [1] came out at 1.27 min. Also, the “Relative ΔOD at Saturation (rating)” value in data set [2] is given as 168. Further, in data set [3], the “λ MAX Vis (Band A)” value was found to be 457 nm and the “λ MAX Vis (Band B)” value is 579 nm.

With `CCCCC1(O)c2ccccc2-c2c1c1c(c3cc(OC)c(OC)cc23)OC(c2ccccc2)(c2ccc(N3CCOCC3)cc2)C=C1` (centres unmarked) [Example 16, 3-(4-morpholinophenyl)-3-phenyl-6,7-dimethoxy-13-hydroxy-13-butyl-3H,13H-indeno[2,1,-f]naphtho[1,2-b]pyran], in data set [1], the “ΔOD @ Saturation (Band A)” value is reported as 0.37, the “Sensitivity ΔOD/MIN (Band A)” value is 0.22 ΔOD/MIN, the “ΔOD @ Saturation (Band B)” value is on record as 0.35 and the “Sensitivity ΔOD/MIN (Band B)” value is on record as 0.19 ΔOD/MIN. Further, the “Bleach Rate T 1/2” value in data set [1] turned out to be 1.88 min. Further, the “Relative ΔOD at Saturation (rating)” value in data set [2] is recorded as 106. Further, in data set [3], the “λ MAX Vis (Band A)” value worked out at 485 nm and the “λ MAX Vis (Band B)” value worked out at 600 nm.

With `CCC1(O)c2ccccc2-c2c1c1c(c3cc(OC)c(OC)cc23)OC(c2ccc(OC)cc2)(c2ccc(N3CCOCC3)cc2)C=C1` (centres unmarked) [Example 17, 6,7-dimethoxy-3-(4-methoxyphenyl)-3-(4-morpholinophenyl)-13-hydroxy-13-ethyl-3H,13H-indeno[2,1-f]naphtho[1,2-b]pyran], in data set [1], the “ΔOD @ Saturation (Band A)” value turned out to be 0.25, the “Sensitivity ΔOD/MIN (Band A)” value is 0.21 ΔOD/MIN, the “ΔOD @ Saturation (Band B)” value is recorded as 0.24 and the “Sensitivity ΔOD/MIN (Band B)” value is 0.18 ΔOD/MIN. For the same molecule, the “Bleach Rate T 1/2” value in data set [1] turned out to be 1.4 min. The “Relative ΔOD at Saturation (rating)” value in data set [2] is reported as 104. For the same molecule, in data set [3], the “λ MAX Vis (Band A)” value came out at 480 nm and the “λ MAX Vis (Band B)” value is reported as 603 nm.

`CCC1(OC)c2ccccc2-c2c1c1c(c3cc(OC)c(OC)cc23)OC(c2ccc(OC)cc2)(c2ccc(N3CCOCC3)cc2)C=C1` (centres unmarked) [Example 18, 3-(4-methoxyphenyl)-3-(4-morpholinophenyl)-6,7-dimethoxy-13-ethyl-13-methoxy-3H,13H-indeno[2,1-f]naphtho[1,2-b]pyran]: in data set [1], the “ΔOD @ Saturation (Band A)” value is on record as 0.27, the “Sensitivity ΔOD/MIN (Band A)” value is 0.21 ΔOD/MIN, the “ΔOD @ Saturation (Band B)” value was found to be 0.27 and the “Sensitivity ΔOD/MIN (Band B)” value was 0.18 ΔOD/MIN. Further, in data set [1], the “Bleach Rate T 1/2” value was 1.43 min. Moreover, in data set [2], the “Relative ΔOD at Saturation (rating)” value came to 100. In addition, in data set [3], the “λ MAX Vis (Band A)” value was determined as 483 nm and the “λ MAX Vis (Band B)” value is recorded as 604 nm.

As for `COc1ccc(C2(c3ccc(N4CCOCC4)cc3)C=Cc3c4c(c5cc(OC)c(OC)cc5c3O2)-c2ccccc2C4(C)O)cc1` (centres unmarked) [Example 19, 3-(4-methoxyphenyl)-3-(4-morpholinophenyl)-6,7-dimethoxy-13-hydroxy-13-methyl-3H,13H-indeno[2,1-f]naphtho[1,2-b]pyran], in data set [1], the “ΔOD @ Saturation (Band A)” value is 0.34, the “Sensitivity ΔOD/MIN (Band A)” value is reported as 0.18 ΔOD/MIN, the “ΔOD @ Saturation (Band B)” value is 0.35 and the “Sensitivity ΔOD/MIN (Band B)” value is 0.22 ΔOD/MIN. Further, the “Bleach Rate T 1/2” value in data set [1] stood at 1.63 min. Besides, in data set [2], the “Relative ΔOD at Saturation (rating)” value amounted to 97. Further, in data set [3], the “λ MAX Vis (Band A)” value was 481 nm and the “λ MAX Vis (Band B)” value amounted to 603 nm.

As to `COc1ccc(C2(c3ccc(N4CCOCC4)cc3)C=Cc3c4c(c5cc(OC)c(OC)cc5c3O2)-c2ccccc2C4(C)OC)cc1` (centres unmarked) [Example 20, 3-(4-methoxyphenyl)-3-(4-morpholinophenyl)-6,7-dimethoxy-13-methoxy-13-methyl-3H,13H-indeno[2,1-f]naphtho[1,2-b]pyran], in data set [1], the “ΔOD @ Saturation (Band A)” value is given as 0.34, the “Sensitivity ΔOD/MIN (Band A)” value is listed as 0.16 ΔOD/MIN, the “ΔOD @ Saturation (Band B)” value is listed as 0.37 and the “Sensitivity ΔOD/MIN (Band B)” value was 0.17 ΔOD/MIN. Besides, the “Bleach Rate T 1/2” value in data set [1] amounted to 1.75 min. Further, the “Relative ΔOD at Saturation (rating)” value in data set [2] was 92. For the same molecule, in data set [3], the “λ MAX Vis (Band A)” value came out at 483 nm and the “λ MAX Vis (Band B)” value is on record as 604 nm.

For the origin of these results see patent US6296785A, “Indeno-fused photochromic naphthopyrans” (PPG Industries Ohio, Inc., priority 2000, dated 2001).
